Test results reported in patent US20260158017A1, “KIF18A INHIBITOR” (WIGEN BIOMEDICINE TECHNOLOGY (SHANGHAI) CO., LTD., priority 2021, published 2026).
pIC50: −log10 of the molar value.

Target: T1, Recombinant human KIF18A (1-467His-tagged) protein (Homo sapiens, UniProt Q8NI77)
T1 construct: Recombinant human KIF18A (1-467His-tagged) protein; His; made in house
Assay: KIF18A enzyme assay (microtubule-stimulated ATPase activity, ADP-Glo)
Type: biochemical
Settings: 30 nM KIF18A, 75 μM ATP, 30 μg/mL pig microtubules; read-out: Inhibitory activity against KIF18A IC50
Summary of the method: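 Buffer 15 mM Tris pH 7.5, 10 mM MgCl2, 0.01% Pluronic F-68, 1 μM paclitaxel, 30 μg/mL pig microtubules; reactions at room temperature. IC50 from inhibition relative to DMSO.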

T1 sequence (Q8NI77 1-467): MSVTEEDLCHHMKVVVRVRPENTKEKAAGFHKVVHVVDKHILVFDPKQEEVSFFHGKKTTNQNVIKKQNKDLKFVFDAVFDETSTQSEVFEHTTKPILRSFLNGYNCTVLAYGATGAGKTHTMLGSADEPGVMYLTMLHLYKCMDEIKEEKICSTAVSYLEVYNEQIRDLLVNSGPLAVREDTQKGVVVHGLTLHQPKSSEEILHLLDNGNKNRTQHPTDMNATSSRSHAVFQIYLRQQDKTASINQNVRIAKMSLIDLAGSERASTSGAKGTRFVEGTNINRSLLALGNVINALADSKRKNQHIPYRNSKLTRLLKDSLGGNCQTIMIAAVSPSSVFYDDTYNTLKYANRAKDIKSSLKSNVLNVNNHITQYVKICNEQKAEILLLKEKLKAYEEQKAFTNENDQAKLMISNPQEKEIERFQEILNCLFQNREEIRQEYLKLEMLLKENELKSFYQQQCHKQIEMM
T1 sequence (P02550 whole entry partner): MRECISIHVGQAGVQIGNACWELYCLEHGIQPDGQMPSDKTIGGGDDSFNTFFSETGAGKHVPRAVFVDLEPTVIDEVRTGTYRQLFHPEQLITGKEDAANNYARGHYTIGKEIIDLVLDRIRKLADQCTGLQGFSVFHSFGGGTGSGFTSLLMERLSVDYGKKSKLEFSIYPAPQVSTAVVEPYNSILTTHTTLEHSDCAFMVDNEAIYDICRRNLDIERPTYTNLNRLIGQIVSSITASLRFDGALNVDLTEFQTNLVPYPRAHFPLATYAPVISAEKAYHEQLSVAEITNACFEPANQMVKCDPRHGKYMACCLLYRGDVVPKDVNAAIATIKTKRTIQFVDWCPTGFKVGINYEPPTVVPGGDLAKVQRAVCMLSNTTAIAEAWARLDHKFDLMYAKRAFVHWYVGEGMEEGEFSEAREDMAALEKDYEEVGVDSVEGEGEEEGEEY
T1 sequence (P02554 whole entry partner): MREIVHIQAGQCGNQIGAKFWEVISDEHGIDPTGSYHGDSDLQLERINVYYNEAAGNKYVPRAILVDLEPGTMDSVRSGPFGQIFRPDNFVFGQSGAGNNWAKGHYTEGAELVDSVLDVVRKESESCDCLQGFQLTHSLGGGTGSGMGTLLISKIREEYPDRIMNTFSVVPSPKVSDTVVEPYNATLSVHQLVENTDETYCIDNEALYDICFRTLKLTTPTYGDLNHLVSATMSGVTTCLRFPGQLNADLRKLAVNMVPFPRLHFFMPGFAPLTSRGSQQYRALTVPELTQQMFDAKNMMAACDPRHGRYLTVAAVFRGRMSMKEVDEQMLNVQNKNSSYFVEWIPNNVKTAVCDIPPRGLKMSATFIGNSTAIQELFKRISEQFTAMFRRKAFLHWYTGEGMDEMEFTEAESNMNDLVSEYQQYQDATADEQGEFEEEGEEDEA

SMILES | pIC50
C[C@@H]1CN(c2nc(C(=O)Nc3ccc(NS(=O)(=O)[C@@H](C)CO)cc3N3CCC4(CC3)CC4)ccc2[N+](=O)[O-])CCO1 [Compound 175] | ≥ 7.00
C[C@@H]1CN(c2nc(C(=O)Nc3ccc(NS(=O)(=O)[C@H](C)CO)cc3N3CCC4(CC3)CC4)ccc2[N+](=O)[O-])CCO1 [Compound 176] | ≥ 7.00
O=C(Nc1ccc(S(=O)(=O)NCCO)cc1N1CCC2(CC1)CC2)c1ccc([N+](=O)[O-])c(N2CCC(F)(F)CC2)n1 [Compound 177] | 6.30 to 7.00
C[C@@H]1CN(c2nc(C(=O)Nc3ccc(S(=O)(=O)NCCO)cc3N3CCC4(CC3)CC4)ccc2[N+](=O)[O-])CCO1 [Compound 178] | 6.30 to 7.00
C[C@H]1CN(c2nc(C(=O)Nc3ccc(S(=O)(=O)NCCO)cc3N3CCC4(CC3)CC4)ccc2[N+](=O)[O-])CCO1 [Compound 179] | 6.30 to 7.00
O=C(Nc1ccc(S(=O)(=O)NCCO)cc1N1CCC2(CC1)CC2)c1ccc([N+](=O)[O-])c(N2CC(F)(F)C2)n1 [Compound 180] | 6.30 to 7.00
O=C(Nc1ccc(S(=O)(=O)NCCO)cc1N1CCC2(CC1)CC2)c1ccc([N+](=O)[O-])c(OCCC(F)(F)F)n1 [Compound 181] | 6.30 to 7.00
O=C(Nc1ccc(S(=O)(=O)NCCO)cc1N1CCC2(CC1)CC2)c1ccc([N+](=O)[O-])c(N2CCC3(CC3)C2)n1 [Compound 182] | 6.30 to 7.00
O=C(Nc1ccc(S(=O)(=O)NCCO)cc1N1CCC2(CC1)CC2)c1ccc([N+](=O)[O-])c(OC2CCC2)n1 [Compound 183] | 6.30 to 7.00
CC1(F)CCN(c2nc(C(=O)Nc3ccc(S(=O)(=O)NCCO)cc3N3CCC4(CC3)CC4)ccc2[N+](=O)[O-])C1 (centres unmarked) [Compound 184] | 6.30 to 7.00
O=C(Nc1ccc(S(=O)(=O)NCCO)cc1N1CCC2(CC1)CC2)c1ccc([N+](=O)[O-])c(N2CCC(F)CC2)n1 [Compound 185] | 6.30 to 7.00
O=C(Nc1ccc(S(=O)(=O)NCCO)cc1N1CCC2(CC1)CC2)c1ccc([N+](=O)[O-])c(N2CC3CC3C2)n1 (centres unmarked) [Compound 186] | 6.30 to 7.00
CC(C)(CO)Nc1nc(C(=O)Nc2ccc(S(=O)(=O)NCCO)cc2N2CCC3(CC2)CC3)ccc1[N+](=O)[O-] [Compound 187] | 6.30 to 7.00
O=C(Nc1ccc(S(=O)(=O)NCCO)cc1N1CCC2(CC1)CC2)c1ccc([N+](=O)[O-])c(N2CCOCC2)n1 [Compound 188] | 6.30 to 7.00
C[C@@H](CO)NS(=O)(=O)c1ccc(NC(=O)c2ccc([N+](=O)[O-])c(N3CCC(F)(F)CC3)n2)c(N2CCC3(CC2)CC3)c1 [Compound 189] | 6.30 to 7.00
C[C@H](CO)NS(=O)(=O)c1ccc(NC(=O)c2ccc([N+](=O)[O-])c(N3CCC(F)(F)CC3)n2)c(N2CCC3(CC2)CC3)c1 [Compound 190] | 6.30 to 7.00
C[C@@H]1CN(c2nc(C(=O)Nc3ccc(S(=O)(=O)N[C@@H](C)CO)cc3N3CCC4(CC3)CC4)ccc2[N+](=O)[O-])CCO1 [Compound 191] | 6.30 to 7.00
C[C@H](CO)NS(=O)(=O)c1ccc(NC(=O)c2ccc([N+](=O)[O-])c(N3CCO[C@H](C)C3)n2)c(N2CCC3(CC2)CC3)c1 [Compound 192] | 6.30 to 7.00
O=C(Nc1cnc(NS(=O)(=O)CCO)cc1N1CCC2(CC1)CC2)c1ccc([N+](=O)[O-])c(N2CCC(F)(F)CC2)c1 [Compound 193] | ≥ 7.00

SMILES | pIC50
C[C@@H]1CN(c2cc(C(=O)Nc3cnc(NS(=O)(=O)CCO)cc3N3CCC4(CC3)CC4)ccc2[N+](=O)[O-])CCO1 [Compound 194] | ≥ 7.00
C[C@H]1CN(c2cc(C(=O)Nc3cnc(NS(=O)(=O)CCO)cc3N3CCC4(CC3)CC4)ccc2[N+](=O)[O-])CCO1 [Compound 195] | ≥ 7.00
O=C(Nc1cnc(NS(=O)(=O)CCO)cc1N1CCC2(CC1)CC2)c1ccc([N+](=O)[O-])c(N2CC(F)(F)C2)c1 [Compound 196] | ≥ 7.00
O=C(Nc1cnc(NS(=O)(=O)CCO)cc1N1CCC2(CC1)CC2)c1ccc([N+](=O)[O-])c(OCCC(F)(F)F)c1 [Compound 197] | ≥ 7.00
O=C(Nc1cnc(NS(=O)(=O)CCO)cc1N1CCC2(CC1)CC2)c1ccc([N+](=O)[O-])c(N2CCC3(CC3)C2)c1 [Compound 198] | ≥ 7.00
O=C(Nc1cnc(NS(=O)(=O)CCO)cc1N1CCC2(CC1)CC2)c1ccc([N+](=O)[O-])c(OC2CCC2)c1 [Compound 199] | ≥ 7.00
CC1(F)CCN(c2cc(C(=O)Nc3cnc(NS(=O)(=O)CCO)cc3N3CCC4(CC3)CC4)ccc2[N+](=O)[O-])C1 (centres unmarked) [Compound 200] | ≥ 7.00
O=C(Nc1cnc(NS(=O)(=O)CCO)cc1N1CCC2(CC1)CC2)c1ccc([N+](=O)[O-])c(N2CCC(F)CC2)c1 [Compound 201] | ≥ 7.00
O=C(Nc1cnc(NS(=O)(=O)CCO)cc1N1CCC2(CC1)CC2)c1ccc([N+](=O)[O-])c(N2CC3CC3C2)c1 (centres unmarked) [Compound 202] | ≥ 7.00
CC(C)(CO)Nc1cc(C(=O)Nc2cnc(NS(=O)(=O)CCO)cc2N2CCC3(CC2)CC3)ccc1[N+](=O)[O-] [Compound 203] | ≥ 7.00
O=C(Nc1cnc(NS(=O)(=O)CCO)cc1N1CCC2(CC1)CC2)c1ccc([N+](=O)[O-])c(N2CCOCC2)c1 [Compound 204] | ≥ 7.00
C[C@@H](CO)S(=O)(=O)Nc1cc(N2CCC3(CC2)CC3)c(NC(=O)c2ccc([N+](=O)[O-])c(N3CCC(F)(F)CC3)c2)cn1 [Compound 205] | ≥ 7.00
C[C@H](CO)S(=O)(=O)Nc1cc(N2CCC3(CC2)CC3)c(NC(=O)c2ccc([N+](=O)[O-])c(N3CCC(F)(F)CC3)c2)cn1 [Compound 206] | ≥ 7.00
C[C@@H]1CN(c2cc(C(=O)Nc3cnc(NS(=O)(=O)[C@@H](C)CO)cc3N3CCC4(CC3)CC4)ccc2[N+](=O)[O-])CCO1 [Compound 207] | ≥ 7.00
C[C@@H]1CN(c2cc(C(=O)Nc3cnc(NS(=O)(=O)[C@H](C)CO)cc3N3CCC4(CC3)CC4)ccc2[N+](=O)[O-])CCO1 [Compound 208] | ≥ 7.00
O=C(Nc1cnc(S(=O)(=O)NCCO)cc1N1CCC2(CC1)CC2)c1ccc([N+](=O)[O-])c(N2CCC(F)(F)CC2)c1 [Compound 209] | 6.30 to 7.00
C[C@@H]1CN(c2cc(C(=O)Nc3cnc(S(=O)(=O)NCCO)cc3N3CCC4(CC3)CC4)ccc2[N+](=O)[O-])CCO1 [Compound 210] | 6.30 to 7.00
C[C@H]1CN(c2cc(C(=O)Nc3cnc(S(=O)(=O)NCCO)cc3N3CCC4(CC3)CC4)ccc2[N+](=O)[O-])CCO1 [Compound 211] | 6.30 to 7.00
O=C(Nc1cnc(S(=O)(=O)NCCO)cc1N1CCC2(CC1)CC2)c1ccc([N+](=O)[O-])c(N2CC(F)(F)C2)c1 [Compound 212] | 6.30 to 7.00

Other lines, results leading:

pIC50 | SMILES
6.30 to 7.00 | O=C(Nc1cnc(S(=O)(=O)NCCO)cc1N1CCC2(CC1)CC2)c1ccc([N+](=O)[O-])c(OCCC(F)(F)F)c1 [Compound 213]
6.30 to 7.00 | O=C(Nc1cnc(S(=O)(=O)NCCO)cc1N1CCC2(CC1)CC2)c1ccc([N+](=O)[O-])c(N2CCC3(CC3)C2)c1 [Compound 214]
6.30 to 7.00 | O=C(Nc1cnc(S(=O)(=O)NCCO)cc1N1CCC2(CC1)CC2)c1ccc([N+](=O)[O-])c(OC2CCC2)c1 [Compound 215]
6.30 to 7.00 | CC1(F)CCN(c2cc(C(=O)Nc3cnc(S(=O)(=O)NCCO)cc3N3CCC4(CC3)CC4)ccc2[N+](=O)[O-])C1 (centres unmarked) [Compound 216]
6.30 to 7.00 | O=C(Nc1cnc(S(=O)(=O)NCCO)cc1N1CCC2(CC1)CC2)c1ccc([N+](=O)[O-])c(N2CCC(F)CC2)c1 [Compound 217]
6.30 to 7.00 | O=C(Nc1cnc(S(=O)(=O)NCCO)cc1N1CCC2(CC1)CC2)c1ccc([N+](=O)[O-])c(N2CC3CC3C2)c1 (centres unmarked) [Compound 218]
6.30 to 7.00 | CC(C)(CO)Nc1cc(C(=O)Nc2cnc(S(=O)(=O)NCCO)cc2N2CCC3(CC2)CC3)ccc1[N+](=O)[O-] [Compound 219]
6.30 to 7.00 | O=C(Nc1cnc(S(=O)(=O)NCCO)cc1N1CCC2(CC1)CC2)c1ccc([N+](=O)[O-])c(N2CCOCC2)c1 [Compound 220]
6.30 to 7.00 | C[C@@H](CO)NS(=O)(=O)c1cc(N2CCC3(CC2)CC3)c(NC(=O)c2ccc([N+](=O)[O-])c(N3CCC(F)(F)CC3)c2)cn1 [Compound 221]
6.30 to 7.00 | C[C@H](CO)NS(=O)(=O)c1cc(N2CCC3(CC2)CC3)c(NC(=O)c2ccc([N+](=O)[O-])c(N3CCC(F)(F)CC3)c2)cn1 [Compound 222]
6.30 to 7.00 | C[C@@H]1CN(c2cc(C(=O)Nc3cnc(S(=O)(=O)N[C@@H](C)CO)cc3N3CCC4(CC3)CC4)ccc2[N+](=O)[O-])CCO1 [Compound 223]
6.30 to 7.00 | C[C@H](CO)NS(=O)(=O)c1cc(N2CCC3(CC2)CC3)c(NC(=O)c2ccc([N+](=O)[O-])c(N3CCO[C@H](C)C3)c2)cn1 [Compound 224]
≥ 7.00 | O=C(Nc1cnc(NS(=O)(=O)CCO)cc1N1CCC2(CC1)CC2)c1ccc([N+](=O)[O-])c(N2CCC(F)(F)CC2)n1 [Compound 225]
≥ 7.00 | C[C@@H]1CN(c2nc(C(=O)Nc3cnc(NS(=O)(=O)CCO)cc3N3CCC4(CC3)CC4)ccc2[N+](=O)[O-])CCO1 [Compound 226]
≥ 7.00 | C[C@H]1CN(c2nc(C(=O)Nc3cnc(NS(=O)(=O)CCO)cc3N3CCC4(CC3)CC4)ccc2[N+](=O)[O-])CCO1 [Compound 227]
≥ 7.00 | O=C(Nc1cnc(NS(=O)(=O)CCO)cc1N1CCC2(CC1)CC2)c1ccc([N+](=O)[O-])c(N2CC(F)(F)C2)n1 [Compound 228]
≥ 7.00 | O=C(Nc1cnc(NS(=O)(=O)CCO)cc1N1CCC2(CC1)CC2)c1ccc([N+](=O)[O-])c(OCCC(F)(F)F)n1 [Compound 229]
≥ 7.00 | O=C(Nc1cnc(NS(=O)(=O)CCO)cc1N1CCC2(CC1)CC2)c1ccc([N+](=O)[O-])c(N2CCC3(CC3)C2)n1 [Compound 230]
≥ 7.00 | O=C(Nc1cnc(NS(=O)(=O)CCO)cc1N1CCC2(CC1)CC2)c1ccc([N+](=O)[O-])c(OC2CCC2)n1 [Compound 231]
≥ 7.00 | CC1(F)CCN(c2nc(C(=O)Nc3cnc(NS(=O)(=O)CCO)cc3N3CCC4(CC3)CC4)ccc2[N+](=O)[O-])C1 (centres unmarked) [Compound 232]
≥ 7.00 | O=C(Nc1cnc(NS(=O)(=O)CCO)cc1N1CCC2(CC1)CC2)c1ccc([N+](=O)[O-])c(N2CCC(F)CC2)n1 [Compound 233]
